# System: ERISU (Conyza sumatrensis, Sumatran fleabane)
# Assay: greenhouse post-emergence foliar weed control, visual score 0-100 percent
# Assay type: in vivo
# Conditions: 49 gai/ha
# Text: Results in Examples are greenhouse trial results.
# Seeds or nutlets of the desired test plant species were planted in a soil matrix prepared by mixing a loam or sandy loam soil (e.g., 28.6 percent silt, 18.8 percent clay, and 52.6 percent sand, with a pH of about 5.8 and an organic matter content of about 1.8 percent) and calcareous grit in an 80 to 20 ratio. The soil matrix was contained in plastic pots with a volume of 1 quart and a surface area of 83.6 cm2. When required to ensure good germination and healthy plants, a fungicide treatment and/or other chemical or physical treatment was applied. The plants were grown for 8-22 days in a greenhouse with an approximate 14 h photoperiod which was maintained at about 29° C. during the day and 26° C. during the night. Nutrients (Peters Excel® 15-5-15 5-Ca 2-Mg and iron chelate) were applied in the irrigation solution as needed and water was added on a regular basis. Supplemental lighting was provided with overhead metal halide 1000-Watt lamps as necessary. The plants were employed for testing when they reached the first through fourth true leaf stage.
# Treatments comprised of the acid or esters of halauxifen-methyl (methyl 4-amino-3-chloro-6-(4-chloro-2-fluoro-3-methoxyphenyl)picolinate), each formulated as an SC (suspension concentrate), and various herbicidal components alone and in combination. A form of the compound of Formula I were applied on an acid equivalent basis.
# Treatment requirements were calculated based upon the rates being tested, the concentration of active ingredient or acid equivalent in the formulation, and a 12 mL application volume at a rate of 187 L/ha.
# For treatments comprised of formulated and technical compounds, weighed amounts of the technical materials were placed individually in 25 mL glass vials and dissolved in a volume of 97:3 v/v acetone/DMSO to obtain 12× stock solutions, and measured amounts of the formulated compounds were placed individually in 25 mL glass vials and diluted in a volume of 1.5% (v/v) crop oil concentrate or water to obtain 12× stock solutions. […] As required, additional water and/or 97:3 v/v acetone/DMSO was added to individual application solutions so that the final acetone and DMSO concentrations of the application solutions being compared were 8.1% and 0.25%, respectively.
# All stock solutions and applications solutions were visually inspected for compound compatibility prior to application. Spray solutions were applied to the plant material with an overhead Mandel track sprayer equipped with an 8002E nozzle calibrated to deliver 187 L/ha over an application area of 0.503 m2 at a spray height of 18 to 20 inches (46 to 50 cm) above average plant canopy height. Control plants were sprayed in the same manner with the solvent blank.
# The treated plants and control plants were placed in a greenhouse as described above and watered by sub-irrigation to prevent wash-off of the test compounds. […]
# Table 1 illustrates weed control for foliar applications of compositions comprising halauxifen-methyl+2,4-D-dimethylammonium (2,4-D-DMA)+saflufenacil on various broadleaf weeds. […] The compositions disclosed herein can be used in burndown and fallow crop applications or in herbicide tolerant crops. These compositions can be used for broad-spectrum control of broadleaf weeds including, but not limited to, ALS, auxinic, HPPD, PPO, saflufenacil and glyphosate resistant broadleaf weeds. The compositions disclosed herein can have utility in AAD1 and AAD12 monocot and dicot crops whereby there is crop tolerance to all 3 modes of action, providing growers with a solution to control susceptible and resistant broadleaf weeds, as well as to delay the development of resistance by the use of 3 modes of action product. The compositions disclosed herein can be used in non-crop and R&P/IVM situations, post directed in perennial crops, and potentially across many crops where there is tolerance to all 3 modes of action.
smiles,measurement,setting,value
"CC(C)N(C)S(=O)(=O)NC(=O)c1cc(-n2c(=O)cc(C(F)(F)F)n(C)c2=O)c(F)cc1Cl [saflufenacil, 2-chloro-5-[3,6-dihydro-3-methyl-2,6-dioxo-4-(trifluoromethyl)-1(2H)-pyrimidinyl]-4-fluoro-N-[[methyl(1-methylethyl)amino]sulfonyl]benzamide]",Chem 2 Actual Mean % Weed Control,"Trial 1, ERISU, 17DAA",52.50%
same,Chem 2 Actual Mean % Weed Control,"Trial 1, ERISU, 28DAA",66.25%
same,Chem 2 Actual Mean % Weed Control,"Trial 1, ERISU, 43DAA",77.50%
same,Chem 2 Actual Mean % Weed Control,"Trial 2, ERISU, 17DAA",66.25%
same,Chem 2 Actual Mean % Weed Control,"Trial 2, ERISU, 28DAA",97.50%
same,Chem 2 Actual Mean % Weed Control,"Trial 2, ERISU, 43DAA",98.25%

# Reference: patent US20220015361A1, “COMPOSITIONS COMPRISING HALAUXIFEN AND OTHER HERBICIDES AND METHODS THEREOF” (DOW AGROSCIENCES LLC, priority 2018, published 2022)
